Results taken from patent US10688099B2, “Methods for modulating the amount of RNA transcripts” (PTC Therapeutics, Inc., priority 2013, dated 2020).

System: RNA isoforms in PNN 1-46 SMA type I patient-derived fibroblasts
Test: RNA Abundance Modulation (RNA isoform abundance, iFPM, HiSeq RNA sequencing)
Format: cell-based, human
Settings: 3 μM
Description: Cells from a cell line of interest are cultured in conditions sufficient to yield the number of cells capable of generating enough RNA for subsequent sequencing steps. Cells from the tested cell line are contacted with a compound described herein.
To culture said cells, they are seeded, at appropriate concentrations in a volume of media in a cell culture container and incubated for 4, 5, 6, 7, 8, 9, 10, or more hours. A concentrated solution of compound in a vehicle (e.g., DMSO) is then added in sufficient volume to result in the intended final concentration of the compound, for example 100 nM, 500 nM, 1 μM, 5 μM, 10 μM, 15 μM, 20 μM, or more. The cells may also be treated with vehicle alone, as a control. A number of replicates of each concentration or control may be made (e.g., 2 replicates). The cells are then incubated at a constant temperature appropriate for cell culture of the particular cell line (e.g., 37° C.) for 6, 12, 18, 24, 48, or more hours. After incubation, the growth medium is removed and the cells are washed with the appropriate buffer (e.g., PBS). Cells are then removed from adherence to the cell culture container by treatment with a solution containing trypsin, and the trypsin subsequently quenched with the appropriate volume of buffer (e.g., DMEM-FBS). The cells are then pelleted with gentle centrifugation (e.g., ≤90×g centrifugal force) and resuspended in a buffer to lyse the cells for extraction of RNA. The cell lysates may then be frozen (e.g., at −80° C.) or, alternately, may immediately be used in a procedure to purify the RNA (e.g. by use of the RNEASY PLUS® minikit). The RNA from cell lysates is eluted in the appropriate volume of buffer (e.g., RNEASE-FREE H2O®). The resulting purified RNA may then be sequenced (e.g., using RNASeq) or analyzed using a human exon array (e.g., by GENECHIP® human exon array) to determine changes in the RNA levels in those cells treated with compound compared to those cells treated only with DMSO. The purified RNA may also be quantified by other methods known in the art.
Using the RNA data obtained from sequencing, exon array, or other methods, a statistical analysis can reveal changes in the RNA levels of compound-treated compared with control. For example, t-test p-values may be calculated for the data obtained through sequencing and exon array methods in order to compare compound-treated cells to those treated with the DMSO control. […] Analysis of the sequencing and exon array data may then also yield predictions about the cause of the aberrant amount of an RNA transcript in the cells (e.g., perturbation of RNA splicing, RNA transcription, or RNA stability). These predictions may be further confirmed by methods known in the art. For example, RT-PCR and RT-qPCR may be used to confirm the change in amount of RNA transcripts for one or more particular transcripts of interest.
Following the methods described above in Example 1, PNN 1-46 SMA type I patient-derived fibroblasts were treated with 300 nM or 3 μM Compounds 774 and 808 in 0.5% DMSO.
700,000 cells were seeded in 10 mL of medium (DMEM plus 10% FBS) in a T-75 flask. Cells were allowed to attach for at least 4 hrs, after which 50 μL of a 200× compound solution (100% DMSO) was added to each well, and the plate was incubated at 37° C. for 24 hrs.
At the end of the incubation period, the supernatant was removed and the cells where washed with PBS. TrypLE (Invitrogen) express solution was added (e.g. 1.5 mL per one T75 flask). The flasks were incubated for 3 to 5 min at 37° C. The trypsin was then quenched, e.g., by adding 10 mL DMEM-FBS.
Next, the cells were pelleted using gentle centrifugation without exceeding 90×g centrifugal force. The supernatant was removed and the cell pellet was re-suspended in 600 μL RLT buffer (the RLT buffer was supplemented with beta-mercaptoethanol according to the RNeasy protocol manual) by pipetting up and down until the pellet was completely dissolved […]

## CCc1nc(C)cn2nc(-c3cc(=O)n4cc(C5CCN(C)CC5)cc(C)c4n3)cc12 [Compound 774]
TIMP2 AK294290
  L2FC (x + 1): −6.520
  L2abs (Cpd-DMSO): 6.50
  abs (Cpd-DMSO): 91 iFPM
  amp FC (x + 1): 91.79
  ave Cpd: 0 iFPM
TIMP2 BC039613
  FC (x + 1): 0.9284
  L2FC (x + 1): −0.107
  L2abs (Cpd-DMSO): 11.17
  abs (Cpd-DMSO): 2306 iFPM
  amp FC (x + 1): 1.08
  ave Cpd: 29887 iFPM
TIMP2 NM_003255
  FC (x + 1): 0.9585
  L2FC (x + 1): −0.061
  L2abs (Cpd-DMSO): 9.77
  abs (Cpd-DMSO): 876 iFPM
  amp FC (x + 1): 1.04
  ave Cpd: 20235 iFPM
TLK1 AK091975
  FC (x + 1): 0.7110
  L2FC (x + 1): −0.492
  L2abs (Cpd-DMSO): 6.56
  abs (Cpd-DMSO): 95 iFPM
  amp FC (x + 1): 1.41
  ave Cpd: 232 iFPM
TLK1 BX537631
  FC (x + 1): 1.2332
  L2FC (x + 1): 0.302
  L2abs (Cpd-DMSO): 0.14
  abs (Cpd-DMSO): 1 iFPM
  amp FC (x + 1): 1.23
  ave Cpd: 5 iFPM
TLK1 E09283
  FC (x + 1): 1.1041
  L2FC (x + 1): 0.143
  L2abs (Cpd-DMSO): 1.54
  abs (Cpd-DMSO): 3 iFPM
  amp FC (x + 1): 1.10
  ave Cpd: 30 iFPM
TLK1 NM_012290
  FC (x + 1): 1.4535
  L2FC (x + 1): 0.540
  L2abs (Cpd-DMSO): 8.52
  abs (Cpd-DMSO): 367 iFPM
  amp FC (x + 1): 1.45
  ave Cpd: 1174 iFPM
TLK1 NM_001136554
  FC (x + 1): 0.3744
  L2FC (x + 1): −1.417
  L2abs (Cpd-DMSO): 8.77
  abs (Cpd-DMSO): 437 iFPM
  amp FC (x + 1): 2.67
  ave Cpd: 260 iFPM
TLK1 NM_001136555
  FC (x + 1): 4.0350
  L2FC (x + 1): 2.013
  L2abs (Cpd-DMSO): 6.40
  abs (Cpd-DMSO): 84 iFPM
  amp FC (x + 1): 4.04
  ave Cpd: 111 iFPM
TMEM154 NM_152680
  FC (x + 1): 2.2609
  L2FC (x + 1): 1.177
  L2abs (Cpd-DMSO): 8.26
  abs (Cpd-DMSO): 306 iFPM
  amp FC (x + 1): 2.26
  ave Cpd: 548 iFPM
TNS3 NM_022748
  FC (x + 1): 0.1472
  L2FC (x + 1): −2.764
  L2abs (Cpd-DMSO): 9.92
  abs (Cpd-DMSO): 971 iFPM
  amp FC (x + 1): 6.79
  ave Cpd: 167 iFPM
TOMM5 CCDS47968
  FC (x + 1): 0.9090
  L2FC (x + 1): −0.138
  L2abs (Cpd-DMSO): −2.28
  abs (Cpd-DMSO): 0 iFPM
  amp FC (x + 1): 1.10
  ave Cpd: 1 iFPM
TOMM5 CR627326
  FC (x + 1): 0.4244
  L2FC (x + 1): −1.236
  L2abs (Cpd-DMSO): 2.64
  abs (Cpd-DMSO): 6 iFPM
